From patent US20060194837A1, “Tetrahydroisoquinoline compounds” (priority 2004, published 2006) come the findings set out here.

As a reminder, the Ki is the equilibrium dissociation constant of an inhibitor or competing ligand from its target.

Each structure is given as a SMILES string. Where two headings read alike, the source gives them in different places.

Experiment [1] addresses T1, human H3 receptor (Homo sapiens, UniProt Q9Y5N1).
T1 construct: expressed in transfected cells
As to the kind of experiment: H3 receptor binding (N-[3H]-α-methylhistamine displacement). The following applies: membranes of SK-N-MC cells expressing cloned human H3 receptor, 0.8 nM N-[3H]-α-methylhistamine, 60 min at 25° C.

Experiment [2] addresses T1, human H3 receptor. As to the kind of experiment: Cyclic AMP accumulation (β-galactosidase reporter, Schild analysis). It is filed as cell-based. The following applies: histamine agonist, forskolin 5 μM, Schild regression of pEC50 values. The protocol:
Sublines of SK-N-MC cells were created that expressed a reporter construct and the human H3 receptor. The reporter gene (β-galactosidase) is under the control of multiple cyclic AMP responsive elements. In 96-well plates, histamine was added directly to the cell media followed 5 min later by an addition of forskolin (5 μM final concentration). When appropriate, antagonists were added 10 min prior to agonist addition. After a 6-h incubation at 37° C., the media was aspirated and the cells washed with 200 μL of phosphate-buffered saline followed by a second aspiration. Cells were lysed with 25 μL 0.1× assay buffer (10 mM Na-phosphate, pH 8, 0.2 mM MgSO4, 0.01 mM MnCl2) and incubated at rt for 10 min. […] Color was developed using 25 μL of 1 mg/mL substrate solution (chlorophenolred β-D galactopyranoside; Roche Molecular Biochemicals, Indianapolis, In.).

Another experiment concerns the target T2, Rat SERT (Rattus norvegicus, UniProt P31652).
T2 construct: A rat brain without cerebellum (Zivic Laboratories, Inc.—Pittsburgh, Pa.) was homogenized; tissue Zivic Laboratories, Inc; host or cells: rat brain without cerebellum, membranes
Description: Rat brain SERT binding ([3H]-citalopram displacement). The following applies: rat brain membranes without cerebellum, 0.6 nM [3H]-citalopram, 60 min at 25° C. The protocol:
The supernatant was removed and re-centrifuged at 15,000 rpm for 30 min. […] Membranes were incubated with 0.6 nM [^3H]-Citalopram plus/minus test compounds for 60 min at 25° C. and harvested by rapid filtration over GF/C glass fiber filters (pretreated with 0.3% polyethylenimine) followed by four washes with ice-cold buffer.

In a further experiment the target is T3, human SERT (Homo sapiens, UniProt P31645).
T3 construct: expressed in transfected cells; host or cells: HEK293 membranes
T3 sequence (P31645 whole entry): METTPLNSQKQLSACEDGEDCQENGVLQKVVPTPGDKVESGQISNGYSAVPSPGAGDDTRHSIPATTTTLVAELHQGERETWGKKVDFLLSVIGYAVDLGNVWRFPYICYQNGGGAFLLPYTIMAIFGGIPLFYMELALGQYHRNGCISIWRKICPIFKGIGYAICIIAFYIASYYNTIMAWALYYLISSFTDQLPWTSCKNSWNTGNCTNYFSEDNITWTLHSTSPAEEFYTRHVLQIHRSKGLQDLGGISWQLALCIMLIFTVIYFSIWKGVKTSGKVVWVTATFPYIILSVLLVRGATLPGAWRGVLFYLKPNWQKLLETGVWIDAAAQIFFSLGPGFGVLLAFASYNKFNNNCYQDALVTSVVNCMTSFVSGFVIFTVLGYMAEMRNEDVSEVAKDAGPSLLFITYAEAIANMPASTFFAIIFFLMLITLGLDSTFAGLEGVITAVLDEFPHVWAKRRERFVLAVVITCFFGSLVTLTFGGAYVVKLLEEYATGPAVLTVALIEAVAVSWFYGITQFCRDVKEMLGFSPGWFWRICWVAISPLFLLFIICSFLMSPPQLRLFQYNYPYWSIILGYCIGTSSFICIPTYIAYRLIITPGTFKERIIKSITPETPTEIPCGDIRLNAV
As to the kind of experiment: Human SERT binding (3H-citalopram displacement). The following applies: HEK293 membranes expressing human SERT, rt 1 h. The protocol:
Homogenized HEK293 (Human Embryonic Kidney) membranes expressing the human SERT were incubated with ^3H-citalopram (SERT) at rt for 1 h in 50 mM Tris, 120 mM NaCl, 5 mM KCl (pH 7.4). […] The membranes were washed and the radioactivity was counted as above.

The mark [3] stands for this setting: SK-N-MC cells expressing human H3 receptor and CRE-β-galactosidase reporter, read-out: pA2 (converted).
The mark [4] stands for this setting: pA2, SK-N-MC cells expressing human H3 receptor and CRE-β-galactosidase reporter.

T1 sequence (Q9Y5N1 whole entry): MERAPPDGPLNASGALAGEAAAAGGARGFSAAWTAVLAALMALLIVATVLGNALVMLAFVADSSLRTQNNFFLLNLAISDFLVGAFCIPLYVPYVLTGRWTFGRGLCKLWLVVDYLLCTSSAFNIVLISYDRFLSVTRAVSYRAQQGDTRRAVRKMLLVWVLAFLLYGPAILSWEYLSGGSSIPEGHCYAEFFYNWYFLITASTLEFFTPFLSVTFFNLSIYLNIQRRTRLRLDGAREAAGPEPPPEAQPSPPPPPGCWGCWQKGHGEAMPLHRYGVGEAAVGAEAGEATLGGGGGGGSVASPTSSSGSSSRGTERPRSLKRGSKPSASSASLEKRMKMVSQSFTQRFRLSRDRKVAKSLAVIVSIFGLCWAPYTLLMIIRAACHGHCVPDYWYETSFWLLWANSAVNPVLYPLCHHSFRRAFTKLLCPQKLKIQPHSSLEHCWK
T2 sequence (P31652 whole entry): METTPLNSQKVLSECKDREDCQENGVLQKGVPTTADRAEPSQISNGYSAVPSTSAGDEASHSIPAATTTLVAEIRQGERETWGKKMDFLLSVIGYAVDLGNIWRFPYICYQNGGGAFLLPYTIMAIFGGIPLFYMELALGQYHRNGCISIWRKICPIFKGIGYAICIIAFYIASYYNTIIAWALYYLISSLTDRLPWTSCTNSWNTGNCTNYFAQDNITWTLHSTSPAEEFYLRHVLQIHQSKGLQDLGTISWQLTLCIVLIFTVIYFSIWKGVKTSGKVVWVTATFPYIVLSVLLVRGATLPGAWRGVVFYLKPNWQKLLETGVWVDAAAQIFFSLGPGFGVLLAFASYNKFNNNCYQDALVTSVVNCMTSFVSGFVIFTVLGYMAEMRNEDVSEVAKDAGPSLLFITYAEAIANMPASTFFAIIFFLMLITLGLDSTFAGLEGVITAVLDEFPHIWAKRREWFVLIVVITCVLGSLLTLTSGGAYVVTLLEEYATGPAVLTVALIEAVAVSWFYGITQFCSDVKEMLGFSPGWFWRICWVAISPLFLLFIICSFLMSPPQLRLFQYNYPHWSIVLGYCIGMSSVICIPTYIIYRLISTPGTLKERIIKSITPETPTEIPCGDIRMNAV

With `CN1Cc2cc(C#CCCN3CCCCC3)ccc2C(c2ccc(F)cc2)C1` (stereo not shown) [Example 279, 4-(4-Fluoro-phenyl)-2-methyl-7-(4-piperidin-1-yl-but-1-ynyl)-1,2,3,4-tetrahydro-isoquinoline], the results for the inhibition constant (Ki) at human H3 receptor [1], on Rat SERT (read-out: Rat SERT Ki) and on human SERT were 6 nM, 90 nM and 98 nM, respectively. Moreover, at human H3 receptor [2] (setting [3]), the Kb was 3.16 nM.

In the case of `CN1Cc2cc(OCCCN3CCOCC3)ccc2C(c2ccc(Cl)c(Cl)c2)C1` (stereo not shown) [Example 77, 4-(3,4-Dichloro-phenyl)-2-methyl-7-(3-morpholin-4-yl-propoxy)-1,2,3,4-tetrahydro-isoquinoline], the figures for the Ki on human H3 receptor [1], on Rat SERT (read-out: Rat SERT Ki) and on human SERT were 3 nM, 27 nM and 28 nM, respectively. This compound showed a Kb on human H3 receptor [2] (setting [4]) of 20 nM.

Take `CN1Cc2cc(OCCCN3CCCCC3)ccc2C(c2ccc(Cl)c(Cl)c2)C1` (stereo not shown) [Example 76, 4-(3,4-Dichloro-phenyl)-2-methyl-7-(3-piperidin-1-yl-propoxy)-1,2,3,4-tetrahydro-isoquinoline]: the values for the Ki on human H3 receptor [1], on Rat SERT (Rat SERT Ki (nM)) and at human SERT were 5 nM, 11 nM and 9 nM, respectively. For the same compound, on human H3 receptor [2] (setting [4]), the Kb was 3.98 nM.

As for `CN1Cc2cc(OCCCN3CCCCC3)ccc2C(c2ccc(C(F)(F)F)cc2)C1` (stereo not shown) [Example 60], the inhibitory constant (Ki) on human H3 receptor [1] turned out to be 2 nM; on Rat SERT (read-out: Rat SERT Ki), 14 nM; on human SERT, 7 nM. Further, the Kb on human H3 receptor [2] (setting [3]) was 2.51 nM.

Turning to `CN1Cc2cc(OCCCN3CCOCC3)ccc2C(c2ccc([S+](C)[O-])cc2)C1` (single isomer, unassigned) [Example 165A, 4-(4-Methanesulfinyl-phenyl)-2-methyl-7-(3-morpholin-4-yl-propoxy)-1,2,3,4-tetrahydro-isoquinoline], the figures for the Ki on human H3 receptor [1] and at Rat SERT (read-out: Rat SERT Ki) were 2 nM and 91 nM, respectively. The Kb on human H3 receptor [2] (setting [3]) is 3.16 nM.

`COc1ccc(C2CN(C)Cc3cc(OC[C@@H]4CN(C5CC5)CCO4)ccc32)cc1` (single isomer, unassigned) [Example 260A, 7-(4-Cyclopropyl-morpholin-2S-ylmethoxy)-4-(4-methoxy-phenyl)-2-methyl-1,2,3,4-tetrahydro-isoquinoline]: the inhibition constant Ki on human H3 receptor [1] turned out to be 2 nM; on Rat SERT (read-out: Rat SERT Ki), 17 nM. Moreover, on human H3 receptor [2] (setting [3]), the Kb was 1 nM.

Turning to `COc1ccc(C2CN(C)Cc3cc(OCCCN4CCCCC4)c(C)cc32)cc1` (stereo not shown) [Example 265, 4-(4-Methoxy-phenyl)-2,6-dimethyl-7-(3-piperidin-1-yl-propoxy)-1,2,3,4-tetrahydro-isoquinoline], the values for the Ki at human H3 receptor [1] and on Rat SERT (read-out: Rat SERT Ki) were 2 nM and 13 nM, respectively. Moreover, at human H3 receptor [2] (setting [3]), the Kb is 1.58 nM.

Take `CN1Cc2cc(OCCCN3CCC(F)CC3)ccc2C(c2ccc(Br)cc2)C1` (stereo not shown) [Example 213, 4-(4-Bromo-phenyl)-7-[3-(4-fluoro-piperidin-1-yl)-propoxy]-2-methyl-1,2,3,4-tetrahydro-isoquinoline]: the values for the inhibitory constant (Ki) at human H3 receptor [1] and on Rat SERT (read-out: Rat SERT Ki) were 11 nM and 6 nM, respectively. Further, the Kb at human H3 receptor [2] (setting [3]) is 10 nM.

As for `CSc1ccc(C2CN(C)Cc3cc(OCC4CN(C(C)C)CCO4)ccc32)cc1` (mixture of isomers) [Example 262, 7-(4-Isopropyl-morpholin-2-ylmethoxy)-2-methyl-4-(4-methylsulfanyl-phenyl)-1,2,3,4-tetrahydro-isoquinoline], the Ki at human H3 receptor [1] came to 10 nM; at Rat SERT (read-out: Rat SERT Ki) it was 5 nM. Moreover, on human H3 receptor [2] (setting [3]), the Kb was 6.31 nM.

With `CCCN1CCC(COc2ccc3c(c2)CN(C)CC3c2ccc(OC)cc2)CC1` (stereo not shown) [Example 85, 4-(4-Methoxy-phenyl)-2-methyl-7-(1-propyl-piperidin-4-ylmethoxy)-1,2,3,4-tetrahydro-isoquinoline], the results for the inhibitory constant (Ki) at human H3 receptor [1] and at Rat SERT (read-out: Rat SERT Ki) were 8 nM and 7 nM, respectively. Moreover, the Kb at human H3 receptor [2] (setting [3]) is 6.31 nM.

As to `CN1Cc2cc(OCCCN3CCC(F)CC3)ccc2C(c2cc(Cl)ccc2Cl)C1` (stereo not shown) [Example 55, 4-(2,5-Dichloro-phenyl)-7-[3-(4-fluoro-piperidin-1-yl)-propoxy]-2-methyl-1,2,3,4-tetrahydro-isoquinoline], the Ki at human H3 receptor [1] was 8 nM; at Rat SERT (Rat SERT Ki (nM)) it was 209 nM. The Kb at human H3 receptor [2] (setting [4]) is 5.01 nM.

For `COc1ccc(C2CNCc3cc(OCCCN4CCCCC4)ccc32)cc1` (stereo not shown) [Example 69, 4-(4-Methoxy-phenyl)-7-(3-piperidin-1-yl-propoxy)-1,2,3,4-tetrahydro-isoquinoline], the inhibition constant (Ki) stood at 1 nM on human H3 receptor [1] and 9 nM at Rat SERT (read-out: Rat SERT Ki). Further, the Kb on human H3 receptor [2] (setting [3]) is 0.794 nM.

In the case of `CN1Cc2cc(OCCCN3CCC(F)CC3)ccc2C(c2ccc(Cl)c(Cl)c2)C1` (stereo not shown) [Example 58, 4-(3,4-Dichloro-phenyl)-7-[3-(4-fluoro-piperidin-1-yl)-propoxy]-2-methyl-1,2,3,4-tetrahydro-isoquinoline], the inhibitory constant (Ki) is 9 nM on human H3 receptor [1] and 8 nM at Rat SERT (read-out: Rat SERT Ki). Further, the Kb at human H3 receptor [2] (setting [3]) is 31.6 nM.

As to `CSc1ccc(C2CN(C)Cc3cc(OCC4CN(C5CC5)CCO4)ccc32)cc1` (mixture of isomers) [Example 263, 7-(4-Cyclopropyl-morpholin-2-ylmethoxy)-2-methyl-4-(4-methylsulfanyl-phenyl)-1,2,3,4-tetrahydro-isoquinoline], the Ki at human H3 receptor [1] and at Rat SERT (read-out: Rat SERT Ki) was 11 nM throughout. For the same compound, the Kb on human H3 receptor [2] (setting [3]) was 7.94 nM.

Regarding `COc1ccc(C2CNCc3cc(OCCCN4CCC(F)CC4)ccc32)cc1` (stereo not shown) [Example 147, 7-[3-(4-Fluoro-piperidin-1-yl)-propoxy]-4-(4-methoxy-phenyl)-1,2,3,4-tetrahydro-isoquinoline], the inhibition constant (Ki) at human H3 receptor [1] amounted to 9 nM; on Rat SERT (read-out: Rat SERT Ki) it was 18 nM. Further, the Kb on human H3 receptor [2] (setting [3]) was 10 nM.

Turning to `COc1ccc(C2CN(C)Cc3cc(OC[C@H]4CN(C(C)C)CCO4)ccc32)cc1` (single isomer, unassigned) [Example 256A, 7-(4-Isopropyl-morpholin-2R-ylmethoxy)-4-(4-methoxy-phenyl)-2-methyl-1,2,3,4-tetrahydro-isoquinoline], the Ki at human H3 receptor [1] is 7 nM; at Rat SERT (read-out: Rat SERT Ki) it was 12 nM. In addition, on human H3 receptor [2] (setting [3]), the Kb is 5.01 nM.

As to `CSc1ccc(C2CN(C)Cc3cc(OCC4CN(C5CC5)C4)ccc32)cc1` (stereo not shown) [Example 237, 7-(1-Cyclopropyl-azetidin-3-ylmethoxy)-2-methyl-4-(4-methylsulfanyl-phenyl)-1,2,3,4-tetrahydro-isoquinoline], the Ki at human H3 receptor [1] was determined as 5 nM; at Rat SERT (read-out: Rat SERT Ki) it was 3 nM. In addition, at human H3 receptor [2] (setting [3]), the Kb was 15.8 nM.

Take `CSc1ccc(C2CN(C)Cc3cc(OCC4CN(C5CCC5)C4)ccc32)cc1` (stereo not shown) [Example 238, 7-(1-Cyclobutyl-azetidin-3-ylmethoxy)-2-methyl-4-(4-methylsulfanyl-phenyl)-1,2,3,4-tetrahydro-isoquinoline]: the inhibitory constant (Ki) on human H3 receptor [1] came out at 5 nM; on Rat SERT (read-out: Rat SERT Ki) it was 4 nM. On human H3 receptor [2] (setting [3]), the Kb was 12.6 nM.

Take `CSc1ccc(C2CN(C)Cc3cc(OC4CCN(C)CC4)ccc32)cc1` (stereo not shown) [Example 243, 2-Methyl-7-(1-methyl-piperidin-4-yloxy)-4-(4-methylsulfanyl-phenyl)-1,2,3,4-tetrahydro-isoquinoline]: the Ki is 22 nM at human H3 receptor [1], 5 nM at Rat SERT (read-out: Rat SERT Ki) and 6 nM at human SERT.

On to `CN1Cc2cc(OCCCN3CCC(F)CC3)ccc2C(c2ccc(Cl)cc2)C1` (stereo not shown) [Example 47, 4-(4-Chloro-phenyl)-7-[3-(4-fluoro-piperidin-1-yl)-propoxy]-2-methyl-1,2,3,4-tetrahydro-isoquinoline], for which the inhibition constant Ki at human H3 receptor [1] amounted to 10 nM; at Rat SERT (read-out: Rat SERT Ki), 27 nM; at human SERT, 11 nM.

Take `COc1ccc(C2CN(C3CC3)Cc3cc(OCCCN4CCCCC4)ccc32)cc1` (stereo not shown) [Example 73, 2-Cyclopropyl-4-(4-methoxy-phenyl)-7-(3-piperidin-1-yl-propoxy)-1,2,3,4-tetrahydro-isoquinoline]: the results for the inhibition constant Ki at human H3 receptor [1] and at Rat SERT (read-out: Rat SERT Ki) were 2 nM and 83 nM, respectively. For the same compound, the Kb on human H3 receptor [2] (setting [3]) is 1 nM.

In the case of `COc1ccc(C2CN(C)Cc3cc(CCCCN4CCN(C(C)C)CC4)ccc32)cc1` (stereo not shown) [Example 283, 7-[4-(4-Isopropyl-piperazin-1-yl)-butyl]-4-(4-methoxy-phenyl)-2-methyl-1,2,3,4-tetrahydro-isoquinoline], the figures for the Ki at human H3 receptor [1], on Rat SERT (read-out: Rat SERT Ki) and on human SERT were 13 nM, 4 nM and 7 nM, respectively.
